Columns and labels:
[1] = molecular target: Calcium/calmodulin-dependent protein kinase type II subunit delta (Homo sapiens) (UniProt Q13557); test: Inhibition of CaMKIIdelta(h) at 10.0 µM in the Eurofins Kinase panel; details: Compound concentration 10.0 uM
[2] = molecular target: STE20-like serine/threonine-protein kinase (Homo sapiens) (UniProt Q9H2G2); test: Inhibition of SLK(h) at 10.0 µM in the Eurofins Kinase panel; details: Compound concentration 10.0 uM
[3] = molecular target: T1, Muscarinic acetylcholine receptor M4 (Homo sapiens) (UniProt P08173); details: Compound concentration 10.0 uM
T1 sequence (whole entry): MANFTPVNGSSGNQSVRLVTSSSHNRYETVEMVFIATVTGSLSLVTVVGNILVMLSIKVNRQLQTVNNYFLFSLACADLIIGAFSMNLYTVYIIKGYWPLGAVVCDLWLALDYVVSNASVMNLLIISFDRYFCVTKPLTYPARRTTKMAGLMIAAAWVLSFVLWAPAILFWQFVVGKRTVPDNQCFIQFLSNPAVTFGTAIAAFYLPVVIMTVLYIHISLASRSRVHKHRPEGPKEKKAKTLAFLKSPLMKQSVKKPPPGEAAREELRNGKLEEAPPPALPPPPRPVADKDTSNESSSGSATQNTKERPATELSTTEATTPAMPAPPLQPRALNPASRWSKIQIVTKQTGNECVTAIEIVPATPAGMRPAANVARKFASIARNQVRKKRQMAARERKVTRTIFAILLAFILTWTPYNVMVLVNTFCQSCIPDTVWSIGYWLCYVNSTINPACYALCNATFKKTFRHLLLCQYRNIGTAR

[4] = molecular target: Gamma-aminobutyric acid type B receptor subunit 1 (Homo sapiens) (UniProt Q9UBS5); details: Rattus norvegicus; Compound concentration 10.0 uM
Chain of Gamma-aminobutyric acid type B receptor subunit 1 (Homo sapiens) (Q9UBS5 whole entry): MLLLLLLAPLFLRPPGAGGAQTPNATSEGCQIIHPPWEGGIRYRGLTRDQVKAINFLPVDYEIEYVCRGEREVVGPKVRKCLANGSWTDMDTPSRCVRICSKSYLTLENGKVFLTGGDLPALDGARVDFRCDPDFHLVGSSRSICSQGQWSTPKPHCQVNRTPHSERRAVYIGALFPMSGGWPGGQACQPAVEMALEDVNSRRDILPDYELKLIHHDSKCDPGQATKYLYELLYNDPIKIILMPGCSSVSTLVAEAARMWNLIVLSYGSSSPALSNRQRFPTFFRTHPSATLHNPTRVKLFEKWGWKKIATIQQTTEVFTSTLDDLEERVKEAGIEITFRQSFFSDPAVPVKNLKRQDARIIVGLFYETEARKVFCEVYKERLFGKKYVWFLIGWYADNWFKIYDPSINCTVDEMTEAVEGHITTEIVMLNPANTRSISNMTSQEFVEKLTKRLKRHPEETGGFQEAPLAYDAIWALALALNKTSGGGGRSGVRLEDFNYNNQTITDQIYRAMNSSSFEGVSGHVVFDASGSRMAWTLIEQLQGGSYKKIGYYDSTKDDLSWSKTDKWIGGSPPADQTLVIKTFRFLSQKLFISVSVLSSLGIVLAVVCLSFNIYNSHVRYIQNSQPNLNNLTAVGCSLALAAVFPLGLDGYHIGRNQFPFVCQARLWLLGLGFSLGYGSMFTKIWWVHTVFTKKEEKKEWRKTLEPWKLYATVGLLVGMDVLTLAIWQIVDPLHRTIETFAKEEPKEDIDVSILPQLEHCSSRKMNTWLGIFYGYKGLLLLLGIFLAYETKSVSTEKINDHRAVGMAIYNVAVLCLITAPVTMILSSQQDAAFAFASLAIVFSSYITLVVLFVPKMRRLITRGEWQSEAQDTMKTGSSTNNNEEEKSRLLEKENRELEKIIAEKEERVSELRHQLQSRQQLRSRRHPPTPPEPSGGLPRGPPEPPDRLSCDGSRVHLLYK

[5] = molecular target: B1 bradykinin receptor (Homo sapiens) (UniProt P46663); details: Compound concentration 10.0 uM
Chain of B1 bradykinin receptor (Homo sapiens) (P46663 whole entry): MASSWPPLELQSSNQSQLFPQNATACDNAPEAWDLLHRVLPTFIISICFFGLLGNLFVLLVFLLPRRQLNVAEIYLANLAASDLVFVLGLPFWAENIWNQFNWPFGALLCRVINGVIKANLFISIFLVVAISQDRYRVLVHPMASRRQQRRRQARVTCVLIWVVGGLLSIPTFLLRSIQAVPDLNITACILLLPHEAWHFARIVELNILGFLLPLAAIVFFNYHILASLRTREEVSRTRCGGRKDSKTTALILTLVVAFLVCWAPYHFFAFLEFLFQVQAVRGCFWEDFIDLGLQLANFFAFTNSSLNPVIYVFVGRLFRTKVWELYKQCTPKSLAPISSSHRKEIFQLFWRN

[6] = molecular target: T2, D(4) dopamine receptor (Homo sapiens) (UniProt P21917); test: Inhibition of Dopamine D4.2 at 10 µM in the Eurofins-Panlabs radioligand binding assay (Eurofins_assay_219900); design: ligand concentration 0.5 nM; details: Compound concentration 10.0 uM
T2 sequence (whole entry): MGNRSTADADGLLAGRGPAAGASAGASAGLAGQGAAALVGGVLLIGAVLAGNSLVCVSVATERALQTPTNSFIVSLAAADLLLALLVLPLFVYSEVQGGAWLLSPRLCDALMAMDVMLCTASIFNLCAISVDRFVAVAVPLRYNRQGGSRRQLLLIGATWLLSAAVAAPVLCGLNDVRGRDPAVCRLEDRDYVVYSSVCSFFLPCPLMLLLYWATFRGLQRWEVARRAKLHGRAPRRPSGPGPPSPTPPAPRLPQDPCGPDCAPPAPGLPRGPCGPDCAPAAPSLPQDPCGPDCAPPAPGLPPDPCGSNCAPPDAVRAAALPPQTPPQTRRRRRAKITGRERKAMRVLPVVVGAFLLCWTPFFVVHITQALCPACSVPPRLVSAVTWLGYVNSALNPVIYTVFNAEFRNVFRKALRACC

[7] = species on record: Mus musculus; test: Inhibition of Interleukin IL-1 at 10 µM in the Eurofins-Panlabs radioligand binding assay (Eurofins_assay_243520); design: ligand concentration 0.1 nM; details: Compound concentration 10.0 uM
[8] = molecular target: Cysteinyl leukotriene receptor 1 (Homo sapiens) (UniProt Q9Y271); test: Inhibition of Leukotriene, Cysteinyl CysLT1 at 10 µM in the Eurofins-Panlabs radioligand binding assay (Eurofins_assay_250460); design: ligand concentration 0.3 nM, non-specific ligand with concentration 0.3 µM Leukotriene D4, incubation time 30 min, incubation temperature 25 °C; details: Compound concentration 10.0 uM
Chain of Cysteinyl leukotriene receptor 1 (Homo sapiens) (Q9Y271 whole entry): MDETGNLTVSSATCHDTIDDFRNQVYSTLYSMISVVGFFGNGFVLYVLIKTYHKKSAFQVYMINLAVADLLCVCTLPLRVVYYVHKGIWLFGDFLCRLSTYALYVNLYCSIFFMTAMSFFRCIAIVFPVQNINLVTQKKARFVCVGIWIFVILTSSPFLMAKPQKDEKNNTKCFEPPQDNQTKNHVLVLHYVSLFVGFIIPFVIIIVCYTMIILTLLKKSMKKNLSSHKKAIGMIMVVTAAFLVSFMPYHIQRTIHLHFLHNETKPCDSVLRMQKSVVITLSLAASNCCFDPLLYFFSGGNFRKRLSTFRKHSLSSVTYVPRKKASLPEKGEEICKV

[9] = molecular target: Substance-P receptor (Homo sapiens) (UniProt P25103); test: Inhibition of Tachykinin NK1 at 10 µM in the Eurofins-Panlabs radioligand binding assay (Eurofins_assay_255520); design: ligand concentration 0.8 nM; details: Compound concentration 10.0 uM
Chain of Substance-P receptor (Homo sapiens) (P25103 whole entry): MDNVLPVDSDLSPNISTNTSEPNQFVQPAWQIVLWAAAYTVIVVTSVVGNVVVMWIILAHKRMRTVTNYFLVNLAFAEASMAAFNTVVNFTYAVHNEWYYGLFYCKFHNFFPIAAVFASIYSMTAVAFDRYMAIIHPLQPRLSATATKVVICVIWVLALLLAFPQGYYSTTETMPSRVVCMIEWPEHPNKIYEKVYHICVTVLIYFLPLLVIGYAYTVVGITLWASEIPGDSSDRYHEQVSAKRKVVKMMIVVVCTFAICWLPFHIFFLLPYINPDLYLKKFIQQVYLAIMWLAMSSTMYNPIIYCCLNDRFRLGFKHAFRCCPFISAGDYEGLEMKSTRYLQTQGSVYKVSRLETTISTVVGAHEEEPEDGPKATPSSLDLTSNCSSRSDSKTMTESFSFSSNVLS

[10] = molecular target: T3, Muscarinic acetylcholine receptor M5 (Homo sapiens) (UniProt P08912); test: Inhibition of Muscarinic M5 at 10 µM in the Eurofins-Panlabs radioligand binding assay (Eurofins_assay_253010); design: ligand concentration 0.8 nM; details: Compound concentration 10.0 uM
T3 sequence (whole entry): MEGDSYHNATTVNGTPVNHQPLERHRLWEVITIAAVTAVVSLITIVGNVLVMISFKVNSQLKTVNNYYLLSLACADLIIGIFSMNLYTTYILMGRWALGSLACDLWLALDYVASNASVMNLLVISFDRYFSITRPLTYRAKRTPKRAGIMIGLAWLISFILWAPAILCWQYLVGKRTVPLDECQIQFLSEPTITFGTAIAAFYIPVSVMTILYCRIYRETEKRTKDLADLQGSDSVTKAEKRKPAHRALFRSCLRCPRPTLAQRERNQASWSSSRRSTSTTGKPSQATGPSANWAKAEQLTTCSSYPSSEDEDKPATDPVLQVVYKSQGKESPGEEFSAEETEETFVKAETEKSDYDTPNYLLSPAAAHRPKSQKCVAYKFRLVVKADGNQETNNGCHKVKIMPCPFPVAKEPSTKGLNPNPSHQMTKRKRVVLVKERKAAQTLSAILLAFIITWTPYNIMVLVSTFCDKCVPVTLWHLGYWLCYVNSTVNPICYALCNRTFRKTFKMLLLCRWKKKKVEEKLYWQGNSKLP

[11] = molecular target: T4, 5-hydroxytryptamine receptor 3A (Homo sapiens) (UniProt P46098); test: Inhibition of Serotonin (5-Hydroxytryptamine) 5-HT3 at 10 µM in the Eurofins-Panlabs radioligand binding assay (Eurofins_assay_271910); design: ligand concentration 0.69 nM; details: Compound concentration 10.0 uM
T4 sequence (whole entry): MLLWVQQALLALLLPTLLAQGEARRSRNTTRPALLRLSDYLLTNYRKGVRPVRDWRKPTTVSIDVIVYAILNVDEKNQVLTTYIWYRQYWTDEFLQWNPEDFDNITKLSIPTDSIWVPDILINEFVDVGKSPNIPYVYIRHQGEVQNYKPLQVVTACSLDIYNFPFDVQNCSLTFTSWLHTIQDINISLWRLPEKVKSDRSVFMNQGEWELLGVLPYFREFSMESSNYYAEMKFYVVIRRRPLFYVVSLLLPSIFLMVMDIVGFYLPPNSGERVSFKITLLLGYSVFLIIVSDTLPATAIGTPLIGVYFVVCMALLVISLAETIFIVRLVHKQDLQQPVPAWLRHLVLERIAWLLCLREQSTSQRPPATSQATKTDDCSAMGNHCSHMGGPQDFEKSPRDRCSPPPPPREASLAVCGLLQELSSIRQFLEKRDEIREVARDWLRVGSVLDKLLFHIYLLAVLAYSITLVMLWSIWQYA

[12] = molecular target: Aldo-keto reductase family 1 member B1 (Rattus norvegicus) (UniProt P07943); test: Inhibition of Aldose Reductase at compound concentration of 10.0 uM in the Eurofins-Panlabs enzyme assay (Eurofins_assay_107000); design: substrate with concentration; details: Compound concentration 10.0 uM
[13] = molecular target: SRSF protein kinase 2 (Homo sapiens) (UniProt P78362); test: Inhibition of SRPK2(h) at 10.0 µM in the Eurofins Kinase panel; details: Compound concentration 10.0 uM
Chain of SRSF protein kinase 2 (Homo sapiens) (P78362 whole entry, looked up): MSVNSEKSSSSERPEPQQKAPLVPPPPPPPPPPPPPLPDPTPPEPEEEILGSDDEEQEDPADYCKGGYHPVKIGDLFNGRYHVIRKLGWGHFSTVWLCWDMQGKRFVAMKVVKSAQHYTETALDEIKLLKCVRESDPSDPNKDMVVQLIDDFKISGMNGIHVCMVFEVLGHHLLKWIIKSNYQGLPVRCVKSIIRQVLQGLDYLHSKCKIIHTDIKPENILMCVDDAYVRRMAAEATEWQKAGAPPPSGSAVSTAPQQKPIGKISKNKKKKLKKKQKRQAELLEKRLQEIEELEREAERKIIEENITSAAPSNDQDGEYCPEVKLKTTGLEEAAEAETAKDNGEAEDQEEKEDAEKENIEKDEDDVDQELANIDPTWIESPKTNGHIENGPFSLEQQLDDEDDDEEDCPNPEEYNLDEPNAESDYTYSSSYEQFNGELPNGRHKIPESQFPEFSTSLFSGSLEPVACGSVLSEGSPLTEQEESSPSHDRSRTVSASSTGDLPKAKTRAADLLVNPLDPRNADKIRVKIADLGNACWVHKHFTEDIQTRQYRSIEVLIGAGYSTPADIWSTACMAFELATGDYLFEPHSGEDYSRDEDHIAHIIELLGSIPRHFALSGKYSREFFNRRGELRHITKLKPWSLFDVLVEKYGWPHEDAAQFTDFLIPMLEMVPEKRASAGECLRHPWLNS

[14] = molecular target: Beta-2 adrenergic receptor (Homo sapiens) (UniProt P07550); details: Compound concentration 10.0 uM
Chain of Beta-2 adrenergic receptor (Homo sapiens) (P07550 whole entry, looked up): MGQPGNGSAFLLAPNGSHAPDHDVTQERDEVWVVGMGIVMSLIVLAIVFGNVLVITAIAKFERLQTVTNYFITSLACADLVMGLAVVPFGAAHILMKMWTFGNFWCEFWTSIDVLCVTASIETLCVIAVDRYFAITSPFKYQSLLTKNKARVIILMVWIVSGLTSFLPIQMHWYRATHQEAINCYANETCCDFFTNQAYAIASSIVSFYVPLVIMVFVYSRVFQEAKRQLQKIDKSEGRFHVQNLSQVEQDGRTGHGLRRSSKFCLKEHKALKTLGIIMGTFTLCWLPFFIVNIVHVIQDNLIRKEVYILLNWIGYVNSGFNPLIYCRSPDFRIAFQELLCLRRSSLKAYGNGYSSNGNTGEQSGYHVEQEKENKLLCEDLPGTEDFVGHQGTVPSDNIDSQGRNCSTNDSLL

[15] = molecular target: cGMP-specific 3',5'-cyclic phosphodiesterase (Homo sapiens) (UniProt O76074); details: Compound concentration 10.0 uM

Chain of Calcium/calmodulin-dependent protein kinase type II subunit delta (Homo sapiens) (Q13557 whole entry): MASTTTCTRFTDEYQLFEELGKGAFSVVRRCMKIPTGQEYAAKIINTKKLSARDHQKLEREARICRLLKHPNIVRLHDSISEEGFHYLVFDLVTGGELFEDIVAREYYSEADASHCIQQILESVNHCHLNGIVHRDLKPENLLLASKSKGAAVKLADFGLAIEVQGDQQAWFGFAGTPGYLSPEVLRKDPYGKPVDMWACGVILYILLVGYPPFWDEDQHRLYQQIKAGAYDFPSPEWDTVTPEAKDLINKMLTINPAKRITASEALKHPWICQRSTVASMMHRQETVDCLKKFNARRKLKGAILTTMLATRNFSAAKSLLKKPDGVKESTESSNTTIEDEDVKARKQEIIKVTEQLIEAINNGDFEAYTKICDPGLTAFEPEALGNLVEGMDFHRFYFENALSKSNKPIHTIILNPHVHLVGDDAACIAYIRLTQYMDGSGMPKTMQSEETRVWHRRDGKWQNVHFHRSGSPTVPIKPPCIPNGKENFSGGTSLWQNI
Chain of STE20-like serine/threonine-protein kinase (Homo sapiens) (Q9H2G2 whole entry, looked up): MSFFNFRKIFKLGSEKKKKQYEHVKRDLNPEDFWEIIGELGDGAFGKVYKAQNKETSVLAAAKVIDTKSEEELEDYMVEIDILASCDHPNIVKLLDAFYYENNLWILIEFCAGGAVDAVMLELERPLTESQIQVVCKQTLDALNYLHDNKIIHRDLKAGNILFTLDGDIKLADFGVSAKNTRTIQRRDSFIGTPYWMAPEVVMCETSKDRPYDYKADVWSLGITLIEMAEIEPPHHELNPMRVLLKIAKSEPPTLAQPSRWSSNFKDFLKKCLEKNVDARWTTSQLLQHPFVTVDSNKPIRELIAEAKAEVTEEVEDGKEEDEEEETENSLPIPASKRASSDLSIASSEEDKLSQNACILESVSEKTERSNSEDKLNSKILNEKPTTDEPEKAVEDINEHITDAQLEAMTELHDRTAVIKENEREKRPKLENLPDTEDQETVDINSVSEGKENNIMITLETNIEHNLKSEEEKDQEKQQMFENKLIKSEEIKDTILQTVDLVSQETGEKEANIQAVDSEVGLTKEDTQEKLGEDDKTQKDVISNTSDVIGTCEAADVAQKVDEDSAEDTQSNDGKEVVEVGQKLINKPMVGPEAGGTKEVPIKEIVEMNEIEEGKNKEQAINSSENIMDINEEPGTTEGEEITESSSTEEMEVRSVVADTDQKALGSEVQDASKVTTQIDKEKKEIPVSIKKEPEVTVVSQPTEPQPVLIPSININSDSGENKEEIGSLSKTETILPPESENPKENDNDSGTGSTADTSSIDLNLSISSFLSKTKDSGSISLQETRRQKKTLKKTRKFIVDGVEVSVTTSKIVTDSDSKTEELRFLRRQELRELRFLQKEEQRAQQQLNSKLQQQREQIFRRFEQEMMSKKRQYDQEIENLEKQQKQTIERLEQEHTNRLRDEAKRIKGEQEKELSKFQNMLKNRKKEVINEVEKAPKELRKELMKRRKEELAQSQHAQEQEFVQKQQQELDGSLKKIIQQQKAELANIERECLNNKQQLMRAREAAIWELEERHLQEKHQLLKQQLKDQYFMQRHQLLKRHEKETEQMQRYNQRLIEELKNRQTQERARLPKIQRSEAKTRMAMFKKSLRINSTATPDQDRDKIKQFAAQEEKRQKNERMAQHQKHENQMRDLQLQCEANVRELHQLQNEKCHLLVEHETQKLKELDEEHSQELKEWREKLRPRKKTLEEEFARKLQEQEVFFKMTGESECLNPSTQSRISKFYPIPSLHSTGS

Compound	inhibition [1] [%]	inhibition [2] [%]	inhibition [3] [%]	inhibition [4] [%]	inhibition [5] [%]	inhibition [6] [%]	inhibition [7] [%]	inhibition [8] [%]	inhibition [9] [%]	inhibition [10] [%]	inhibition [11] [%]	inhibition [12] [%]	inhibition [13] [%]	inhibition [14] [%]	inhibition [15] [%]
O=c1n(Cc2cncn2-c2cccc(Cl)c2)nc(-c2ccc(Cl)cc2)n1C[C@H](O)C(F)(F)F	-4.39	0.22	-9.78	8	-3										
C[C@H](O)c1nc(Cn2nc(-c3ccc(Cl)cc3)n(C[C@H](O)C(F)(F)F)c2=O)nn1-c1cccc(Cl)c1 [PECAVAPTAN]						3	15	5	20	6	-2	6	-4.81	-4.34	-10

Reference: ChEMBL document CHEMBL5463729, “Data for DCP probe BAY 1753011” (2023)
